Ten molecules from ChEMBL document CHEMBL1122067, “Species- or isozyme-specific enzyme inhibitors. 4. Design of a two-site inhibitor of adenylate kinase with isozyme selectivity” (J Med Chem, 1982) can be followed below.

A short description of series [1]: Inhibitory constant of rat adenylate kinase (AK) isozymes expressed as relative maximal velocity.
Series [2] is described as follows: Concentration for half-maximal velocity for adenylate kinase (AK) was determined.
The nature of series [3]: Inhibitory constant of rat adenylate kinase(AK) isozymes and maximal velocity was determined.
For series [4], the system named is CCCCNc1ncnc2c1ncn2C1O[C@H](COP(=O)(O)OP(=O)(O)OP(=O)(O)O)[C@@H](O)[C@H]1O. Description: (§1) Concentration for half-maximal velocity for adenylate kinase (AK II) was determined.
Series [5] deals with Nc1ncnc2c1ncn2[C@@H]1O[C@H](COP(=O)(O)O)[C@@H](O)[C@H]1O. Described as §1.
In series [6] the test system is O=C(CI)NCCCCCNc1ncnc2c1ncn2C1O[C@H](COP(=O)(O)OP(=O)(O)OP(=O)(O)O)[C@@H](O)[C@H]1O. Described as §1.
Series [7] has as its system CC(=O)NCCCCCCCCNc1ncnc2c1ncn2C1O[C@H](COP(=O)(O)O)[C@@H](O)[C@H]1O. Description: (§2) Inhibitory constant of rat adenylate kinase (AK II) isozymes expressed as relative maximal velocity.
The subject of series [8] is CC(=O)NCCNc1ncnc2c1ncn2C1O[C@H](COP(=O)(O)O)[C@@H](O)[C@H]1O. Described as §2.
In series [9] the test system is CCCCNc1ncnc2c1ncn2C1O[C@H](COP(=O)(O)OP(=O)(O)OP(=O)(O)O)[C@@H](O)[C@H]1O. Described as §2.
In series [10] the test system is CCSc1nc2c(N)ncnc2n1[C@@H]1O[C@H](COP(=O)(O)O)[C@@H](O)[C@H]1O. Described as §2.
In series [11] the test system is Nc1ncnc2c1ncn2[C@@H]1O[C@H](COP(=O)(O)O)[C@@H](O)[C@H]1O. The description is as §2.
The subject of series [12] is O=C(CI)NCCCCCNc1ncnc2c1ncn2C1O[C@H](COP(=O)(O)OP(=O)(O)OP(=O)(O)O)[C@@H](O)[C@H]1O. The description is as §2.

In the case of `CCCSc1nc2c(N)ncnc2n1[C@@H]1O[C@H](COP(=O)(O)OP(=O)(O)OP(=O)(O)O)[C@@H](O)[C@H]1O`, in series [1], the Vmax turned out to be 0%.

Turning to `CCCCSc1ncnc2c1ncn2C1O[C@H](COP(=O)(O)OP(=O)(O)OP(=O)(O)O)[C@@H](O)[C@H]1O` (stereo partly specified), the Vmax in series [1] turned out to be 192%. Also, in series [2], the Michaelis constant (Km) was 4000 µM.

For `CC(=O)NCCNc1ncnc2c1ncn2C1O[C@H](COP(=O)(O)O)[C@@H](O)[C@H]1O` (stereo partly specified), in [3], the Vmax turned out to be 0%.

Take `Nc1ncnc2c1ncn2[C@@H]1O[C@H](COP(=O)(O)OP(=O)(O)OP(=O)(O)O)[C@@H](O)[C@H]1O`: in series [1], the Vmax was found to be 100%. Besides, the Km in [2] was determined as 570 µM.

In the case of `CCCCN(CCCC)c1ncnc2c1ncn2C1O[C@H](COP(=O)(O)OP(=O)(O)OP(=O)(O)O)[C@@H](O)[C@H]1O` (stereo partly specified), the Vmax in series [1] was determined as 0%.

Regarding `Nc1ncnc2c1nc(Sc1ccccc1)n2[C@@H]1O[C@H](COP(=O)(O)OP(=O)(O)OP(=O)(O)O)[C@@H](O)[C@H]1O`, the Vmax in series [1] came to 0%.

Turning to `CC(=O)NCCCCCCCCNc1ncnc2c1ncn2C1O[C@H](COP(=O)(O)O)[C@@H](O)[C@H]1O` (stereo partly specified), the Vmax in [1] was 0%.

Turning to “Adenylate kinase 2, mitochondrial (Rattus norvegicus) (from UniProt P29410)”, the values for the Km in series [4], in series [5] and in series [6] were 1400 µM, 90 µM and 1000 µM, respectively. In addition, the Vmax was found to be 0% in series [7]; 0% in series [8]; 13% in series [9]; 0% in [10]; 100% in [11]; 21% in series [12].

Turning to `O=C(CI)NCCCCCNc1ncnc2c1ncn2C1O[C@H](COP(=O)(O)OP(=O)(O)OP(=O)(O)O)[C@@H](O)[C@H]1O` (stereo partly specified), the Vmax in series [1] worked out at 0%.

As for `CCCCNc1ncnc2c1ncn2C1O[C@H](COP(=O)(O)OP(=O)(O)OP(=O)(O)O)[C@@H](O)[C@H]1O` (stereo partly specified), the Vmax in series [1] turned out to be 86%. Further, the Michaelis-Menten constant (Km) in series [2] amounted to 2800 µM.
